Measurements: patent US4499106A, “Lipolytic composition and method of treating obesity” (Boehringer Ingelheim KG, priority 1983, dated 1985)
“Also recorded” adds a separate entry of the source.

Key:
[1] = system: unesterified fatty acids in the blood plasma; experiment: Metabolic effects in blood plasma of fed rats: unesterified fatty acids; format: in vivo, rat; details: for Unesterified Fatty Acids Δ%: blood plasma
Source text: (§9) Metabolic effects in the blood plasma of fed rats.
(§10) μmol/l (unesterified fatty acids) and mmol/l (lactate).
(§11) Averages ± S.E.M. N of the treated groups = 5-6.

[2] = system: lactate in the blood plasma; experiment: Metabolic effects in blood plasma of fed rats: lactate; format: in vivo, rat; details: for Lactate Δ%: blood plasma; for lactacidemia compared with Me 693: vs Me 693, in words
Source text: as §9, §10, §11

[3] = system: unesterified fatty acids in the blood; experiment: Unesterified fatty acids, conscious rat (maximum percentage change vs control); format: in vivo
Source text: (§1) If the effects on the heart (heart rate), circulation (diastolic blood pressure, peripheral vasodilation) and bronchi, on the one hand, and the increase in the unesterified fatty acids in the blood after the administration of Me 693, on the other hand, are compared with the effects of isoprenaline and fenoterol, it is clear that the cardiovascular and bronchospasmolytic effects are much greater after administration of the comparison substances than with the Me 693, whereas the reverse is true of the lipolytic effects.
(§2) Metabolic and cardiovascular effects and bronchospasmolytic effects of Me
(§3) isoprenaline and fenoterol in animals of various types. The table gives
(§4) maximum percentage changes compared with control values.

heart (heart rate) = experiment: Heart rate, anesthetized dog (maximum percentage change vs control); format: in vivo; details: for Heart Rate Δ%: maximum change; for cardiovascular effects compared with Me 693: vs Me 693, in words
Source text: as §1, §2, §3, §4

[4] = system: circulation (diastolic blood pressure); experiment: Diastolic blood pressure, anesthetized dog (maximum percentage change vs control); format: in vivo
Source text: as §1, §2, §3, §4

[5] = system: circulation (peripheral vasodilation); experiment: Peripheral vasodilation, anesthetized dog (maximum percentage change vs control); format: in vivo
Source text: as §1, §2, §3, §4

bronchi (ACh spasm) = experiment: Bronchospasmolysis, anesthetized guinea pig (inhibition of ACh spasm); format: in vivo; details: for bronchospasmolytic effects compared with Me 693: vs Me 693, in words
Source text: as §1, §2, §3, §4

[6] = system: unesterified fatty acids in the blood; experiment: Metabolic effects of oral administration to three conscious dogs (unesterified fatty acids, triglycerides, lactate); format: in vivo, dog; details: for Triglycerides Δ% / Unesterified Fatty Acids Δ%: maximum change
Protocol: (§5) A dose of only 0.1 mg/kg of Me 693 gives virtually a 100% increase in the unesterified fatty acids in the blood while the heart rate and the diastolic blood pressure are unaffected.
(§6) Metabolic and cardiovascular effects of Me 693 administered
(§7) orally to three conscious dogs. The table gives the maximum
(§8) percentage changes compared with the control values.

[7] = system: heart rate and diastolic blood pressure; experiment: Cardiovascular effects of oral administration to three conscious dogs (heart rate, diastolic blood pressure); format: in vivo, dog; details: for Diastolic Blood Pressure Δ% / Heart Rate Δ%: maximum change
Protocol: as §5, §6, §7, §8

[8] = system: metabolism (development and release of heat); experiment: Calorimetric effects after intravenous administration to rabbits; format: in vivo, rabbit; details: 0.5 mg/kg intravenously
[9] = system: lipolysis and glycogenolysis; experiment: Summary of animal experiments: lipolytic and glycogenolytic (lactate) activity; format: in vivo; details: in words
Source text: To summarize, the animal experiments with Me 693 have given the following results: […]

With `CC(Cc1ccc(O)cc1)NCC(O)c1cc(O)cc(O)c1` (stereo not shown) [Fenoterol, fenoterol] the “Unesterified Fatty Acids Δ%” value ([1]; 0.1 mg/kg s.c.) was “+18%”, the “Unesterified Fatty Acids Δ%” value ([1]; 1.0 mg/kg s.c.) was “+30%” and the “Lactate Δ%” value ([2]; 0.1 mg/kg s.c.) was “+33%”. The “Lactate Δ%” value ([2]; 1.0 mg/kg s.c.) was “+109%”, the “lactacidemia compared with Me 693” value [2] was “significantly greater” and the “Unesterified Fatty Acids Δ%” value ([3]; 0.1 mg/kg s.c.) was “+18%”. The “Unesterified Fatty Acids Δ%” value ([3]; 1.0 mg/kg s.c.) was “+30%”, the “Heart Rate Δ%” value (heart (heart rate); 0.1 μg/kg i.v.) was “+3%” and the “Heart Rate Δ%” value (heart (heart rate); 1 μg/kg i.v.) was “+27%”. The “Heart Rate Δ%” value (heart (heart rate); 10 μg/kg i.v.) was “+50%”, the “cardiovascular effects compared with Me 693” value (heart (heart rate)) was “much greater” and the “Diastolic Blood Pressure Δ%” value ([4]; 0.1 μg/kg i.v.) was -13%. The “Diastolic Blood Pressure Δ%” value ([4]; 1 μg/kg i.v.) was -33%, the “Diastolic Blood Pressure Δ%” value ([4]; 10 μg/kg i.v.) was -54% and the “Peripheral Vasodilation Δ%” value ([5]; 1 μg/kg i.a.) was -20%. The “Peripheral Vasodilation Δ%” value ([5]; 3 μg/kg i.a.) was -28%, the “Bronchospasmolysis, % Inhibition of ACh spasm” value (bronchi (ACh spasm); 10 μg/kg i.v.) was 67-100% and the “bronchospasmolytic effects compared with Me 693” value (bronchi (ACh spasm)) was “much greater”.

For `CC(C)NCC(O)c1ccc(O)c(O)c1` (stereo not shown) [Isoprenaline, isoprenaline], the “Unesterified Fatty Acids Δ%” value ([1]; 0.1 mg/kg s.c.) was “+15%”, the “Unesterified Fatty Acids Δ%” value ([1]; 1.0 mg/kg s.c.) was “+27%” and the “Lactate Δ%” value ([2]; 0.1 mg/kg s.c.) was “+112%”. For the same compound, the “Lactate Δ%” value ([2]; 1.0 mg/kg s.c.) was “+148%”, the “lactacidemia compared with Me 693” value [2] was “significantly greater” and the “Unesterified Fatty Acids Δ%” value ([3]; 0.1 mg/kg s.c.) was “+15%”. The “Unesterified Fatty Acids Δ%” value ([3]; 1.0 mg/kg s.c.) was “+27%”, the “Heart Rate Δ%” value (heart (heart rate); 0.1 μg/kg i.v.) was “+18%” and the “Heart Rate Δ%” value (heart (heart rate); 1 μg/kg i.v.) was “+37%”. The “Heart Rate Δ%” value (heart (heart rate); 10 μg/kg i.v.) was “+56%”, the “cardiovascular effects compared with Me 693” value (heart (heart rate)) was “much greater” and the “Diastolic Blood Pressure Δ%” value ([4]; 0.1 μg/kg i.v.) was -40%. For the same compound, the “Diastolic Blood Pressure Δ%” value ([4]; 1 μg/kg i.v.) was -62%, the “Diastolic Blood Pressure Δ%” value ([4]; 10 μg/kg i.v.) was -71% and the “Peripheral Vasodilation Δ%” value ([5]; 0.001 μg/kg i.a. (so in the source)) was -28%. The “Peripheral Vasodilation Δ%” value ([5]; 0.003 μg/kg i.a.) was -24%, the “Peripheral Vasodilation Δ%” value ([5]; 0.03 μg/kg i.a.) was -33% and the “Bronchospasmolysis, % Inhibition of ACh spasm” value (bronchi (ACh spasm); 10 μg/kg i.v.) was 76-94%. The “bronchospasmolytic effects compared with Me 693” value (bronchi (ACh spasm)) was “much greater”.

`CC(COc1ccccc1)NCC(O)c1ccc(O)c(NS(=O)(=O)N(C)C)c1` (stereo not shown) [Me 693, 1-(4-hydroxy-3-dimethylamino-sulfonamidophenyl)-1-hydroxy-2-(1-phenoxy-isopropylamino)ethane] was tested, and the “Unesterified Fatty Acids Δ%” value ([1]; 0.1 mg/kg s.c.) was “+34%”, the “Unesterified Fatty Acids Δ%” value ([1]; 1 mg/kg oral) was “+63%” and the “Unesterified Fatty Acids Δ%” value ([1]; 1.0 mg/kg s.c.) was “+190%”. The “increase in unesterified fatty acids in the blood vs comparison substances” value ([1]; identical dosage, vs isoprenaline and fenoterol, in words) was “much higher increase”, the “Lactate Δ%” value ([2]; 0.1 mg/kg s.c.) was 0% and the “Lactate Δ%” value ([2]; 1.0 mg/kg s.c.) was “+34%”. For the same compound, the “Unesterified Fatty Acids Δ%” value ([3]; 0.1 mg/kg s.c.) was “+34%”, the “Unesterified Fatty Acids Δ%” value ([3]; 1.0 mg/kg s.c.) was “+190%” and the “Heart Rate Δ%” value (heart (heart rate); 10 μg/kg i.v.) was “+8%”. For the same compound, the “Heart Rate Δ%” value (heart (heart rate); 20 μg/kg i.v.) was “+5%”, the “Diastolic Blood Pressure Δ%” value ([4]; 10 μg/kg i.v.) was -24% and the “Diastolic Blood Pressure Δ%” value ([4]; 20 μg/kg i.v.) was -23%. For the same compound, the “Peripheral Vasodilation Δ%” value ([5]; 10 μg/kg i.a.) was -14%, the “Peripheral Vasodilation Δ%” value ([5]; 30 μg/kg i.a.) was -15% and the “Bronchospasmolysis, % Inhibition of ACh spasm” value (bronchi (ACh spasm); 100 μg/kg i.v.) was 0-2%. The “Triglycerides Δ%” value ([6]; 0.1 mg/kg oral) was “+18%”, the “Triglycerides Δ%” value ([6]; 0.3 mg/kg oral) was “+10%” and the “Unesterified Fatty Acids Δ%” value ([6]; 0.3 mg/kg oral) was “+95%”. The “Triglycerides Δ%” value ([6]; 1.0 mg/kg oral) was “+37%”, the “Unesterified Fatty Acids Δ%” value ([6]; 1.0 mg/kg oral) was “+112%” and the “unesterified fatty acids (in words)” value ([6]; 0.3 and 1 mg/kg oral) was “increased still further to a high level”. The “heart rate and diastolic blood pressure (in words)” value ([7]; 0.1 mg/kg oral) was “unaffected”, the “Diastolic Blood Pressure Δ%” value ([7]; 0.1 mg/kg oral) was 0% and the “Heart Rate Δ%” value ([7]; 0.1 mg/kg oral) was 0%. The “Diastolic Blood Pressure Δ%” value ([7]; 0.3 mg/kg oral) was -15%, the “Heart Rate Δ%” value ([7]; 0.3 mg/kg oral) was “+36%” and the “Diastolic Blood Pressure Δ%” value ([7]; 1.0 mg/kg oral) was -26%. The “Heart Rate Δ%” value ([7]; 1.0 mg/kg oral) was “+95%”, the “blood pressure (in words)” value ([7]; 0.3 and 1 mg/kg oral) was “reductions in blood pressure” and the “heart rate (in words)” value ([7]; 0.3 and 1 mg/kg oral) was “dose-dependent increases in heart rate”. The core temperatures [8] was “higher core temperatures”, the “development and release of heat” value [8] was “increased significantly” and the “heart rate and ear temperature” value [8] was “slight increase in heart rate and ear temperature”. For the same compound, the oxygen consumption [8] was “increased oxygen consumption”, the respiratory quotient [8] was “reduction in the respiratory quotient” and the “differentiation between lipolytic and glycogenolytic activities” value ([9]; animal experiments) was “Extreme differentiation between the lipolytic and glycogenolytic activities”. The glycogenolytic effect ([9]; animal experiments) was “virtually negligible glycogenolytic activity; also recorded: does not have the glycogenolytic effect”, the lipolytic effect ([9]; animal experiments) was “Strong lipolytic activity; also recorded: particularly long-lasting selective lipolytic effect” and the blood lactate [9] was “no changes are observed in blood lactate”.
